The test system of one series is MT4 cells. Put plainly: MTS-based toxicity assay in MT-4 T cell line. The note with it: Table 1, read-out: TC50 (the source's name). Here is the method:
The dose response assay was performed as follows
MTS-based toxicity assays were performed in parallel to the 3 and 6 point dose response assays.
The six point dose assay in 5BD.1 cells was used to calculate an IC50 for the compounds and data from the MT-4 toxicity assay allowed a TC50 to be calculated.

For another series, the system named is HIV-1 NL4-3. Put plainly: Anti-HIV efficacy in fresh human PBMCs, reverse transcriptase readout, HIV-1 NL4-3. The format is cell-based. The note with it: for TI (TC50/IC50): HIV-1 NL4-3, PBMCs; for IC50: HIV-1 NL4-3, fresh human PBMCs, seven days, RT activity. As to the method:
Compounds were evaluated for their ability to inhibit HIV replication in fresh human PBMCs. The assay was performed as follows.
Fresh human PBMCs, seronegative for HIV and HBV, were isolated from screened donors (Interstate Blood Bank, Inc. Memphis, Tenn.). Cells were pelleted/washed 2-3 times by low speed centrifugation and re-suspension in PBS to remove contaminating platelets. The Leukophoresed blood was then diluted 1:1 with Dulbecco's Phosphate Buffered Saline (DPBS) and layered over 14 mL of Lymphocyte Separation Medium (LSM; Cellgro® by Mediatech, Inc.; density 1.078+/−0.002 g/ml; Cat.#85-072-CL) in a 50 mL centrifuge tube and then centrifuged for 30 minutes at 600×g. Banded PBMCs were gently aspirated from the resulting interface and subsequently washed 2× with PBS by low speed centrifugation. After the final wash, cells were enumerated by trypan blue exclusion and re-suspended at 1×10^7 cells/mL in RPMI 1640 supplemented with 15% Fetal Bovine Serum (FBS), and 2 mM L-glutamine, 4 μg/mL Phytohemagglutinin (PHA-P, Sigma). The cells were allowed to incubate for 48-72 hours at 37° C. After incubation, PBMCs were centrifuged and resuspended in RPMI 1640 with 15% FBS, 2 mM L-glutamine, 100 U/mL penicillin, 100 μg/mL streptomycin, 10 μg/mL gentamycin, and 20 U/mL recombinant human IL-2 (R&D Systems, Inc). IL-2 is included in the culture medium to maintain the cell division initiated by the PHA mitogenic stimulation. PBMCs were maintained in this medium at a concentration of 1-2×10^6 cells/mL with biweekly medium changes until used in the assay protocol. Cells were kept in culture for a maximum of two weeks before being deemed too old for use in assays and discarded. Monocytes were depleted from the culture as the result of adherence to the tissue culture flask.
For the standard PBMC assay, PHA-P stimulated cells from at least two normal donors were pooled (mixed together), diluted in fresh medium to a final concentration of 1×10^6 cells/mL, and plated in the interior wells of a 96 well round bottom microplate at 50 μL/well (5×10^4 cells/well) in a standard format developed by the Infectious Disease Research department of Southern Research Institute. Pooling (mixing) of mononuclear cells from more than one donor is used to minimize the variability observed between individual donors, which results from quantitative and qualitative differences in HIV infection and overall response to the PHA and IL-2 of primary lymphocyte populations. Each plate contains virus/cell control wells (cells plus virus), experimental wells (drug plus cells plus virus) and compound control wells (drug plus media without cells, necessary for MTS monitoring of cytotoxicity). Since HIV-1 is not cytopathic to PBMCs, this allows the use of the same assay plate for both antiviral activity and cytotoxicity measurements. Test drug dilutions were prepared at a 2× concentration in microtiter tubes and 100 μL of each concentration was placed in appropriate wells using the standard format. 50 μL of a predetermined dilution of virus stock was placed in each test well (final MOI≅0.1). The PBMC cultures were maintained for seven days following infection at 37° C., 5% CO2. After this period, cell-free supernatant samples were collected for analysis of reverse transcriptase activity as a measure of virus release. Following removal of supernatant samples, compound cytotoxicity was measured by addition of MTS to the plates for determination of cell viability. Wells were also examined microscopically and any abnormalities were noted.
A microtiter plate-based reverse transcriptase (RT) reaction was utilized (Buckheit et al., AIDS Research and Human Retroviruses 7:295-302, 1991). Tritiated thymidine triphosphate (3H-TTP, 80 Ci/mmol, NEN) was received in 1:1 dH2O:Ethanol at 1 mCi/mL. […]

Series [1] concerns U1 cells latently infected with HIV-1. Put plainly: U1 latency activation assay (TNF-α induced, supernatant reverse transcriptase). Format: cell-based. The note with it: for TI (TC50/IC50): Table 6. Here is the method: U1 cells were obtained from the AIDS Research and Reference Reagent Program and maintained under standard culture conditions in RPMI 1640 supplemented with 10% fetal bovine serum (heat inactivated), 2 mM L-glutamine, 100 U/mL penicillin and 100 μg/mL streptomycin. U1 cells are derived from the histocytic leukemia cell line U937, and contain an integrated copy of a cytokine and/or phorbol inducible provirus (HIV-1IIIB). Cultures were maintained in such a way as to ensure exponential growth of the populations. Addition of TNF-α to the cell culture induces HIV-1, so that inhibition of virus production indicates an inhibition of a post-integration function of the HIV-1 life cycle. This is where an inhibitor of Rev function would be expected to act. […]
At the time of the assay, cells were collected by centrifugation and counted by hemacytometer. If cell viability by Trypan Blue dye exclusion was less than 70% the assay was terminated. The cells were adjusted to 5×10^4 cells/mL and 100 μL placed in 96 well plates with 100 μL media containing a final concentration of 5 ng/mL TNF-α and the test compound. Cultures were incubated for 3 days and supernatants harvested. Compound toxicity was determined by MTS dye reduction. Virus expression was measured by supernatant reverse transcriptase activity.
Reverse transcriptase was assayed to measure virus particle release as described above for the PBMC assay.
Compounds were tested in the U1 latency assay using the maximum high-test concentration possible based on the supplied stocks which are listed in table 3. Compounds were tested using the maximum high-test concentration possible based on the supplied stocks. Compounds were prepared at a 2× high-test concentration by combining drug stock with tissue culture media at a ratio of 5 μL of drug to 995 μL of media. This 2× high-test sample was subsequently serially diluted in tissue culture media using 1/2 log dilutions. This series of 2× concentrated drug was subsequently diluted 1:1 by combining with an equal volume of cells in media in the 96-well plates used for the assay. Temacrazine a known inhibitor of HIV transcription was used as a control compound that is active in the post-integration part of the HIV life cycle.
Compounds were tested using the maximum high-test concentration possible based on the supplied stocks. Compounds were prepared at a 2× high-test concentration by combining drug stock with tissue culture media at a ratio of 5 μL of drug to 995 μL of media. This 2× high-test (HT) sample was subsequently serially diluted in tissue culture media using 1/2 log dilutions. This series of 2× concentrated drug was subsequently diluted 1:1 by combining with an equal volume of cells in media in the 96-well plates used for the assay.

Where [2] appears, read: Human immunodeficiency virus 1, NL43, PBMC, 168 h.
Setting [3] is: Human immunodeficiency virus 1, 72 h, U1 cell assay, Table 6, 5 ng/mL TNF-α, 3 days, RT activity.

Here are results for eight compounds from patent US7875604B2, “Compounds that inhibit HIV particle formation” (University of Virginia Patent Foundation, priority 2004, dated 2011).

Consider “2-chloro-N-(4-methylphenyl)-4-(trifluoromethyl)-1,3-thazole-5-carboxamide [Compound 91161]”, for which, in the series with MT4 cells, the CC50 was 18000 nM. The “TI (TC50/IC50)” value is 5.92 in the series on HIV-1 NL4-3 and 1.35 in series [1] (U1 cell assay). The IC50 with HIV-1 NL4-3 was 2280 nM; in series [1] (U1 cell assay, Table 6, 5 ng/mL TNF-α, 3 days, RT activity), 16500 nM.
Turning to `CCc1c(C(=O)Nc2ccccc2)c(C)nc2sc(C(N)=O)c(N)c12` [Compound 75168, 3-amino-4-ethyl-6-methyl-N˜5˜-phenylthieno[2,3-b]pyridine-2,5-dicarboxamide], the CC50 in the series on MT4 cells was > 100000 nM. The “TI (TC50/IC50)” value in the series on HIV-1 NL4-3 was >1.59. This compound displayed a half-inhibitory concentration (IC50) with HIV-1 NL4-3 (setting [2]) of 16900 nM.
Consider `COc1ccc2cc3c(N)n[nH]c3nc2c1` [Compound 89246, 7-methoxy-1H-pyrazolo[3,4-b]quinolin-3-ylamine], for which the CC50 in the series with MT4 cells was 20000 nM. Moreover, the “TI (TC50/IC50)” value in the series on HIV-1 NL4-3 stood at 14.90; in series [1] (U1 cell assay), 102. The IC50 with HIV-1 NL4-3 (setting [2]) was 1470 nM; in series [1] (setting [3]), 240 nM; in series [1] (Human immunodeficiency virus 1, U1 cell assay, analogs, Table 8), < 172 nM.
Regarding `CCc1c(C)nc2sc(C(N)=O)c(N)c2c1C` [Compound 103833, 3-amino-5-ethyl-4,6-dimethylthieno[2,3-b]pyridine-2-carboxamide], the CC50 in the series with MT4 cells stood at 32000 nM. Also, the “TI (TC50/IC50)” value in the series on HIV-1 NL4-3 is >16.94; in series [1] (U1 cell assay), >94. For the same compound, the IC50 in the series with HIV-1 NL4-3 (setting [2]) stood at 2220 nM; in series [1] (setting [3]) it was 400 nM.
On the same counts, the results for `COc1ccc2nc(C(F)(F)F)c(C#N)c(N)c2c1` [Compound 104366, 4-amino-6-methoxy-2-(trifluoromethyl)-3-quinolinecarbonitrile] are 28000 nM, 23.91, >49.6, 920 nM and < 250 nM.
`CS(=O)(=O)c1ncc(-c2ccc(Br)cc2)cn1` [Compound 107129, -(4-bromophenyl)-2-(methylsulfonyl)pyrimidine]: the CC50 with MT4 cells was determined as 10000 nM. In addition, in the series on HIV-1 NL4-3, the “TI (TC50/IC50)” value was determined as 1.95. Besides, the IC50 in the series with HIV-1 NL4-3 (setting [2]) is 2120 nM; in series [1] (setting [3]), > 53000 nM.
Regarding `COc1cccc(NC(=O)c2cc(Cl)nnc2Cl)c1` [Compound 107740, 3,6-dichloro-N-(3-methoxyphenyl)-4-pyridazinecarboxamide], the CC50 in the series with MT4 cells stood at 50000 nM. Moreover, the “TI (TC50/IC50)” value in the series on HIV-1 NL4-3 is reported as 8.94; in series [1] (U1 cell assay), >26.6. In addition, the results for the IC50 (in the series with HIV-1 NL4-3 (setting [2]); in series [1] (setting [3])) were 1610 nM and 1100 nM, respectively.
On to `Fc1ccc(Nc2ncnc3ccccc23)cc1Cl` [Compound 109020, N-(3-chloro-4-fluorophenyl)-N-(4-quinazolinyl)amine], for which the “TI (TC50/IC50)” value with HIV-1 NL4-3 is >1.55; in series [1] (U1 cell assay), >151. Moreover, the figures for the 50% inhibitory concentration (IC50) (with HIV-1 NL4-3 (setting [2]); in series [1] (setting [3])) were 26400 nM and 270 nM, respectively.
